# System: HCV replicon RNA-containing Huh7 cells (clone A cells)
# Assay: HCV replicon assay (replicon RNA by RT-PCR, ΔCt HCV, EC90)
# Assay type: cell-based
# Conditions: Hepatitis C virus, Huh-7, 96 h; for log reduction at 50 µM: read-out: Log10 Reduction at 50 μM
# Protocol: HCV replicon assay. HCV replicon RNA-containing Huh7 cells (clone A cells; Apath, LLC, St. Louis, Mo.) were kept at exponential growth in Dulbecco's modified Eagle's medium (high glucose) containing 10% fetal bovine serum, 4 mM L-glutamine and 1 mM sodium pyruvate, 1×nonessential amino acids, and G418 (1,000 μg/ml). Antiviral assays were performed in the same medium without G418. Cells were seeded in a 96-well plate at 1,500 cells per well, and test compounds were added immediately after seeding. Incubation time 4 days. At the end of the incubation step, total cellular RNA was isolated (RNeasy 96 kit; Qiagen). Replicon RNA and an internal control (TaqMan rRNA control reagents; Applied Biosystems) were amplified in a single-step multiplex RT-PCR protocol as recommended by the manufacturer. The HCV primers and probe were designed with Primer Express software (Applied Biosystems) and covered highly conserved 5′-untranslated region (UTR) sequences (sense, 5′-AGCCATGGCGTTAGTA(T)GAGTGT-3′ (SEQ ID NO: 1), and antisense, 5′-TTCCGCAGACCACTATGG-3′ (SEQ ID NO: 2); probe, 5′-FAM-[…]-TAMRA-3′ (SEQ ID NO: 3)).
# To express the antiviral effectiveness of a compound, the threshold RT-PCR cycle of the test compound was subtracted from the average threshold RT-PCR cycle of the no-drug control (ΔCtHCV). A ΔCt of 3.3 equals a 1-log 10 reduction (equal to the 90% effective concentration [EC90]) in replicon RNA levels. The cytotoxicity of the test compound could also be expressed by calculating the ΔCtrRNA values. The ΔΔCt specificity parameter could then be introduced (ΔCtHCV−ΔCtrRNA), in which the levels of HCV RNA are normalized for the rRNA levels and calibrated against the no-drug control.
SMILES,EC90 [nM],log reduction at 50 µM
"COC(=O)[C@H](C)NP(=O)(OC[C@H]1O[C@@H](n2ccc(=O)[nH]c2=O)[C@](C)(F)[C@@H]1O)Oc1ccccc1 (stereo partly drawn) [Example 5, 2′-Deoxy-2′-fluoro-2′-C-methyluridine 5′-(phenylmethoxy-alanyl phosphate)]",3000,1.21
"COC(=O)[C@@H](NP(=O)(OC[C@H]1O[C@@H](n2ccc(=O)[nH]c2=O)[C@](C)(F)[C@@H]1O)Oc1ccccc1)C(C)C (stereo partly drawn) [Example 6, 2′-Deoxy-2′-fluoro-2′-C-methyluridine 5′-(phenylmethoxy-valyl phosphate)]",–,0.45
"COC(=O)[C@@H](NP(=O)(OC[C@H]1O[C@@H](n2ccc(=O)[nH]c2=O)[C@](C)(F)[C@@H]1O)Oc1ccc(Br)cc1)C(C)C (stereo partly drawn) [Example 7, 2′-Deoxy-2′-fluoro-2′-C-methyluridine 5′-(4-bromophenylmethoxy-valyl phosphate)]",–,-0.31
"COC(=O)[C@H](C)NP(=O)(OC[C@H]1O[C@@H](n2ccc(=O)[nH]c2=O)[C@](C)(F)[C@@H]1O)Oc1ccc(Br)cc1 (stereo partly drawn) [Example 8, 2′-Deoxy-2′-fluoro-2′-C-methyluridine 5′-(4-bromophenylmethoxy-alanyl phosphate)]",2110,1.48
"COC(=O)[C@H](C)NP(=O)(OC[C@H]1O[C@@H](n2ccc(N)nc2=O)[C@](C)(F)[C@@H]1O)Oc1ccccc1 (stereo partly drawn) [Example 10, 2′-Deoxy-2′-fluoro-2′-C-methylcytidine 5′-(phenylmethoxy-alanyl phosphate)]",19200,1.25
"COC(=O)[C@@H](NP(=O)(OC[C@H]1O[C@@H](n2ccc(N)nc2=O)[C@](C)(F)[C@@H]1O)Oc1ccc(Br)cc1)C(C)C (stereo partly drawn) [Example 11, 2′-Deoxy-2′-fluoro-2′-C-methylcytidine 5′-(4-bromophenylmethoxy-valyl phosphate)]",–,0.55
"COC(=O)[C@@H](NP(=O)(OC[C@H]1O[C@@H](n2ccc(N)nc2=O)[C@](C)(F)[C@@H]1O)Oc1ccccc1)C(C)C (stereo partly drawn) [Example 12, 2′-deoxy-2′-fluoro-2′-C-methylcytidine 5′-(phenylmethoxy-valyl phosphate)]",–,-0.31
COC(=O)CNP(=O)(OC[C@H]1O[C@@H](n2ccc(=O)[nH]c2=O)[C@](C)(F)[C@@H]1O)Oc1ccccc1 (stereo partly drawn) [compound 15],860,–
CC(C)OC(=O)[C@H](C)NP(=O)(OC[C@H]1O[C@@H](n2ccc(=O)[nH]c2=O)[C@](C)(F)[C@@H]1O)Oc1ccccc1 (stereo partly drawn) [compound 25],390,2.22
CCOC(=O)[C@H](C)NP(=O)(OC[C@H]1O[C@@H](n2ccc(=O)[nH]c2=O)[C@](C)(F)[C@@H]1O)Oc1ccc(F)cc1 (stereo partly drawn) [compound 27],660,2.25
CC(C)OC(=O)[C@H](C)NP(=O)(OC[C@H]1O[C@@H](n2ccc(=O)[nH]c2=O)[C@](C)(F)[C@@H]1O)Oc1ccc(F)cc1 (stereo partly drawn) [compound 28],750,2.16
CC(C)OC(=O)[C@H](C)NP(=O)(OC[C@H]1O[C@@H](n2ccc(=O)[nH]c2=O)[C@](C)(F)[C@@H]1O)Oc1ccccc1Cl (stereo partly drawn) [compound 36],21900,1.64
CC(C)OC(=O)[C@H](C)NP(=O)(OC[C@H]1O[C@@H](n2ccc(=O)[nH]c2=O)[C@](C)(F)[C@@H]1O)Oc1ccc(Cl)cc1 (stereo partly drawn) [compound 39],470,1.78
C[C@H](NP(=O)(OC[C@H]1O[C@@H](n2ccc(=O)[nH]c2=O)[C@](C)(F)[C@@H]1O)Oc1ccccc1)C(=O)OC1CCCCC1 (stereo partly drawn) [compound 49],126,2.69
CCCCOC(=O)[C@H](C)NP(=O)(OC[C@H]1O[C@@H](n2ccc(=O)[nH]c2=O)[C@](C)(F)[C@@H]1O)Oc1ccccc1Cl (stereo partly drawn) [compound 53],< 300,1.33
CC(C)OC(=O)[C@H](C)NP(=O)(OC[C@H]1O[C@@H](n2ccc(=O)[nH]c2=O)[C@](C)(F)[C@@H]1O)Oc1ccc(Br)cc1 (stereo partly drawn) [compound 54],570,1.55
C[C@H](NP(=O)(OC[C@H]1O[C@@H](n2ccc(=O)[nH]c2=O)[C@](C)(F)[C@@H]1O)Oc1ccc(F)cc1)C(=O)OC1CCCCC1 (stereo partly drawn) [compound 55],< 300,2.38
COC(=O)[C@H](C)NP(=O)(OC[C@H]1O[C@@H](N2C=NC3C(NC4CCCC4)=NC(N)=NC32)[C@](C)(F)[C@@H]1O)Oc1ccccc1 (stereo partly drawn) [compound 69],< 300,2.25
COC(=O)[C@H](C)NP(=O)(OC[C@H]1O[C@@H](N2C=NC3C(N4CCC4)=NC(N)=NC32)[C@](C)(F)[C@@H]1O)Oc1ccccc1 (stereo partly drawn) [compound 70],< 300,2.25
